Measured values from ChEMBL document CHEMBL3232805, “Alkaloids from the roots of Stichoneuron caudatum and their acetylcholinesterase inhibitory activities” (J Nat Prod, 2014).

molecular target: Acetylcholinesterase (Homo sapiens, UniProt P22303); assay: Inhibition of human AChE by spectrophotometry
Sequence (P22303 whole entry): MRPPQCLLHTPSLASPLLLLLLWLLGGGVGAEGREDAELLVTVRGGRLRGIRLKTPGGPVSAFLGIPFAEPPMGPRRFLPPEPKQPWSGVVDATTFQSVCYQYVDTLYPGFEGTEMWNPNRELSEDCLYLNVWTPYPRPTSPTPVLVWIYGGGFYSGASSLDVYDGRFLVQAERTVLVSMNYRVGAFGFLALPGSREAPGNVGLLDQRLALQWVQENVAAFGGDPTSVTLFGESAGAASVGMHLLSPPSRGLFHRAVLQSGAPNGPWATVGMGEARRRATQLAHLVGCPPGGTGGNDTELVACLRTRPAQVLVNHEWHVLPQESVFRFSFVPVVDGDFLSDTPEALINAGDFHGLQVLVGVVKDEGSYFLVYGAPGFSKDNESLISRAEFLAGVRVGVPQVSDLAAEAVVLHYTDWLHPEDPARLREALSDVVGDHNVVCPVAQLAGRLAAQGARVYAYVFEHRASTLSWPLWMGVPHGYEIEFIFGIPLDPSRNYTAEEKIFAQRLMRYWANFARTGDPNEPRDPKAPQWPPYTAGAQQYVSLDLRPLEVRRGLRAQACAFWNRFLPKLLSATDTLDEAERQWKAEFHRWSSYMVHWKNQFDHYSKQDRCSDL

| SMILES | IC50 |
| --- | --- |
| CC[C@H]1[C@H](C[C@H](C)C(=O)OC)O[C@]23CC[C@@H]([C@@H]4C[C@H](C)C(=O)O4)N2CCCC[C@H]13 | 71.5 µM |
| CC[C@H]1[C@H](C[C@H](C)C(=O)OC)O[C@]23CC[C@@H]([C@@H]4C[C@H](C)C(=O)O4)N2CCCC[C@]13O | > 100 µM |
| CC[C@H]1[C@H]2OC(=O)[C@](C)(O)[C@H]2[C@]23CC[C@@H]([C@@H]4C[C@@H](C)C(=O)O4)N2CCCC[C@@H]13 | 9.1 µM |
| CC[C@@H]1[C@H]2OC(=O)[C@](C)(O)[C@H]2[C@]23CC[C@@H]([C@@H]4C[C@@H](C)C(=O)O4)N2CCCC[C@@H]13 | > 100 µM |
| CC[C@@H]1[C@H]2OC(=O)[C@@](C)(O)[C@H]2[C@]23CC[C@@H]([C@@H]4C[C@H](C)C(=O)O4)N2CCCC[C@H]13 | 68.8 µM |
| CC[C@H]1[C@@H]2OC(=O)[C@@](C)(O)[C@@H]2[C@@]23CC[C@@H]([C@@H]4C[C@H](C)C(=O)O4)N2CCCC[C@H]13 | 17.1 µM |
| CC[C@H]1[C@H]2OC(=O)[C@@](C)(O)[C@H]2[C@]23CC[C@@H]([C@@H]4C[C@H](C)C(=O)O4)N2CCCC[C@H]13 | > 100 µM |
